These results are taken from US20050197406A1, “Method of treatment of lung cancer” (priority 1999, published 2005).

Counter-ions that a name gives are not always drawn.

Series [1] relates to A549 human lung cancer cells. In words: A549 human lung cancer xenograft model, β-lapachone alone or with gemcitabine. Type of series: in vivo. The following applies: for toxicity: female, athymic nude (Ncr), mouse, in vivo, ip; for retardation of tumor growth, monotherapy: β-lapachone 60 mg/kg or gemcitabine 120 mg/kg alone, e.g. days 24 and 27. Here is the method: Mice receive a total of eight treatments. Mean tumor volume is analyzed; data points in FIG. 4 represent the arithmetic mean +/−SEM of five tumors.

The test system of series [2] is 60 cancer cell lines. Particulars: FDA approved chemotherapeutic agents, publicly available data; cited from earlier work.
Series [3] deals with 60 cancer cell lines. Kind of series: NCI in vitro screen of 60 cancer cell lines (sulforhodamine B assay). Particulars: Homo sapiens; mean across all cells of NCI60; read-out: LC50 (log 10 molar concentration causing 50% lethality), mean across all cells (converted). The class given is cell-based. As to the method:
The NCI assays are performed under standardized conditions not designed to mimic the conditions of dosing and use the sulforhodamine B assay as the endpoint. […] When compared to many FDA approved chemotherapeutic agents for common cancer types with publicly available data, none of the compared approved drugs exceed the mean of β-lapachone across all cells and only mitoxantrone equals it. FIG. 2.
In general terms: The SRB assay estimates cell density from bound dye.

In another series the test system is normal cells. Kind of series: In vitro experiments using cell lines of various tissue origins (toxicity to normal cells). Type of series: cell-based.
Series [4] relates to A549 human lung cancer cells. Type of series: in vivo. Particulars: 60 mg/kg intraperitoneally every three days, 8 treatments. As to the method: The animals are randomized into three groups of seven animals per group. […] Mean tumor volume is then analyzed.
Setting [5] is: ip every three days, eight treatments.

Turning to `Nc1ccn([C@@H]2O[C@H](CO)[C@@H](O)C2(F)F)c(=O)n1` [gemcitabine, 2′-deoxy-2′,2′-difluorocytidine monohydrochloride (β-isomer), reference compound], the toxicity entry in series [1] was “No significant toxicity”. Also, the “retardation of tumor growth, monotherapy” value in series [1] (setting [5]) is given as “retarded tumor growth to a similar extent”.

Take `O=C1c2c(O)ccc(O)c2C(=O)c2c(NCCNCCO)ccc(NCCNCCO)c21` [mitoxantrone]: in the series on 60 cancer cell lines [2], the “mean LC50 across all cells compared with that of β-lapachone” value is listed as “equals it”.

As to `CC1(C)CCC2=C(O1)c1ccccc1C(=O)C2=O` [β-lapachone, 3,4-dihydro-2,2-dimethyl-2H-naphtho[1,2-b]pyran-5,6-dione], the toxicity entry in series [1] is on record as “No significant toxicity”. Moreover, the “retardation of tumor growth, monotherapy” value in series [1] (setting [5]) was “retarded tumor growth to a similar extent”. For the same compound, the “retardation of tumor growth, 60 mg/kg compared with 40 mg/kg” value in series [1] (β-lapachone in 40% HPBCD, ip every three days, eight treatments) is listed as “more effective at retarding tumor growth”. Also, the CC50 in the series on 60 cancer cell lines [3] is 8.51 µM. In addition, in the series on normal cells, the “toxicity to normal cells” value is listed as “relatively non-toxic to normal cells”. For the same compound, the “reduction of mean tumor volume” value in series [4] is on record as “approximately 50%”.
